Assay [1] addresses Tyrosine-protein kinase ABL2 (Homo sapiens, UniProt P42684).
In assay [2] the target is RAC-gamma serine/threonine-protein kinase (Homo sapiens, UniProt Q9Y243).
In assay [3] the target is Casein kinase I isoform delta (Homo sapiens, UniProt P48730).
Assay [4] addresses T1, Mitogen-activated protein kinase 15 (Homo sapiens, UniProt Q8TD08).
T1 sequence (Q8TD08 whole entry): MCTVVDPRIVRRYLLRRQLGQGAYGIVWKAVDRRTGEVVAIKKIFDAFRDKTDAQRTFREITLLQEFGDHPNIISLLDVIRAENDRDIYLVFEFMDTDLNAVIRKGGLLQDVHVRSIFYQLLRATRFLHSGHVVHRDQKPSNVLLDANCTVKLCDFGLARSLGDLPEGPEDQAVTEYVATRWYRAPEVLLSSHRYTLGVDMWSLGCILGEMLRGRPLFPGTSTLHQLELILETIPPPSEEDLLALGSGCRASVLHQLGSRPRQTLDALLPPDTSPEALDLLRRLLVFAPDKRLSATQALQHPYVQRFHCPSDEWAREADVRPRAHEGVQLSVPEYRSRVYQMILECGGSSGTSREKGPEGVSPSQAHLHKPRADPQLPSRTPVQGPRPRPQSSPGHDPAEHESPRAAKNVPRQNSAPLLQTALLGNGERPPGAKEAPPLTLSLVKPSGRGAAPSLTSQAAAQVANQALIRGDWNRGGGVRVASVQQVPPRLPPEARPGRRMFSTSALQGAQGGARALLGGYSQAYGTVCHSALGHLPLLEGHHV

Assay [5] deals with T2, MAP kinase-activated protein kinase 5 (Homo sapiens, UniProt Q8IW41).
T2 sequence (Q8IW41 whole entry): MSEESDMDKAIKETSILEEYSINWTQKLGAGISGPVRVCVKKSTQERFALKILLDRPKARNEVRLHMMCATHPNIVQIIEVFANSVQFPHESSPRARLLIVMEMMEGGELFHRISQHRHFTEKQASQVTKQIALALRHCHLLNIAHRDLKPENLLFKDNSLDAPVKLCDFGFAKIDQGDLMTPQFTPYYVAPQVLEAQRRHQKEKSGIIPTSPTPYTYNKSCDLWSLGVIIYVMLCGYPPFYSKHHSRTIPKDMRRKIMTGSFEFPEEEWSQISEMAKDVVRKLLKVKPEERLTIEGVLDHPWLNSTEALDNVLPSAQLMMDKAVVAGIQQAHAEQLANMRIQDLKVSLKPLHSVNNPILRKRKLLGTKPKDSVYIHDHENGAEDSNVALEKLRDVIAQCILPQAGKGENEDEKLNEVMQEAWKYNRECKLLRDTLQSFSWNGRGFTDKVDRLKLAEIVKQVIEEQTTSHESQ

Assay [6] addresses Macrophage-stimulating protein receptor (Homo sapiens, UniProt Q04912).
The target in assay [7] is T3, NUAK family SNF1-like kinase 2 (Homo sapiens, UniProt Q9H093).
T3 sequence (Q9H093 whole entry): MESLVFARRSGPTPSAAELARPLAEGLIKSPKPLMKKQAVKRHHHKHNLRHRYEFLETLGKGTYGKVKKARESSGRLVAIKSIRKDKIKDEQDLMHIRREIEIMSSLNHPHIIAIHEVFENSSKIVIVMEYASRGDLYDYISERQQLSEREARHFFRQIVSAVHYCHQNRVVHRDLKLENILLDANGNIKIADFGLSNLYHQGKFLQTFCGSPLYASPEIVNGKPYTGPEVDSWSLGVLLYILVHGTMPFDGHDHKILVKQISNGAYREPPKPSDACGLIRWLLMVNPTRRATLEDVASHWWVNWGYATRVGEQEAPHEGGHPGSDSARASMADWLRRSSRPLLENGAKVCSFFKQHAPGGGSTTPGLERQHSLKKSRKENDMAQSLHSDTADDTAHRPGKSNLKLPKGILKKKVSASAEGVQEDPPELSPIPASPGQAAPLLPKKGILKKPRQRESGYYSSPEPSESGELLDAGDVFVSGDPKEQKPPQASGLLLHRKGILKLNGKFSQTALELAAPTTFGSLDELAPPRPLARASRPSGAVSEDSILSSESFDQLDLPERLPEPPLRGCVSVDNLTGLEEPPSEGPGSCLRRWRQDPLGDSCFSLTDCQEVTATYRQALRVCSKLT

Assay [8] concerns the target 5'-AMP-activated protein kinase catalytic subunit alpha-1 (Homo sapiens, UniProt Q13131).
Assay [9] has as its target cAMP-dependent protein kinase catalytic subunit alpha (Homo sapiens, UniProt P17612).
Assay [10] concerns the target Protein-tyrosine kinase 6 (Homo sapiens, UniProt Q13882).
Assay [11] addresses T4, Ras-related protein Rab-27A (Homo sapiens, UniProt P51159).
T4 sequence (P51159 whole entry): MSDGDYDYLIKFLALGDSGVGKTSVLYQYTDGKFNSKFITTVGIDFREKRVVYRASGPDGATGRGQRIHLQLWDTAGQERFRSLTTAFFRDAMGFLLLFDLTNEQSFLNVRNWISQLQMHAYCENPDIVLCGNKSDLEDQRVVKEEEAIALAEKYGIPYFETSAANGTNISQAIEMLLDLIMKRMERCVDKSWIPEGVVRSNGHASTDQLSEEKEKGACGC

The target in assay [12] is Ribosomal protein S6 kinase alpha-4 (Homo sapiens, UniProt O75676).
For assay [13], the target named is Mitogen-activated protein kinase kinase kinase 20 (Homo sapiens, UniProt Q9NYL2).

The source made the active and inactive calls. Rule as the data show it, for most assays here: actives have a measured Kd and inactives only a lower limit.
Also: in the data inactive means no Kd found up to 30 µM.

Chain of RAC-gamma serine/threonine-protein kinase (Q9Y243 whole entry, canonical isoform): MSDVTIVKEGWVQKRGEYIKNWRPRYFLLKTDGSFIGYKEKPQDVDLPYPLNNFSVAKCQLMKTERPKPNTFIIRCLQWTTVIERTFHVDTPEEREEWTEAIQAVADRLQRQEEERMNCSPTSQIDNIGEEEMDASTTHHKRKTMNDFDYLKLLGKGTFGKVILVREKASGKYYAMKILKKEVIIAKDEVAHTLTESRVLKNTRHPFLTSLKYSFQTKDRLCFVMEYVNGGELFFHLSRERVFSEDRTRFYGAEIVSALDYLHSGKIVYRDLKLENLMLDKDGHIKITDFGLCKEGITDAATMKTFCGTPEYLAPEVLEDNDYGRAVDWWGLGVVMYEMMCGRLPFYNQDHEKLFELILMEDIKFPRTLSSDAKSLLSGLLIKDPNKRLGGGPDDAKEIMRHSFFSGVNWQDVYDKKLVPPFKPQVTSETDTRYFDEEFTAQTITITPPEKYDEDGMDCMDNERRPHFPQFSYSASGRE
Chain of Protein-tyrosine kinase 6 (Q13882 whole entry): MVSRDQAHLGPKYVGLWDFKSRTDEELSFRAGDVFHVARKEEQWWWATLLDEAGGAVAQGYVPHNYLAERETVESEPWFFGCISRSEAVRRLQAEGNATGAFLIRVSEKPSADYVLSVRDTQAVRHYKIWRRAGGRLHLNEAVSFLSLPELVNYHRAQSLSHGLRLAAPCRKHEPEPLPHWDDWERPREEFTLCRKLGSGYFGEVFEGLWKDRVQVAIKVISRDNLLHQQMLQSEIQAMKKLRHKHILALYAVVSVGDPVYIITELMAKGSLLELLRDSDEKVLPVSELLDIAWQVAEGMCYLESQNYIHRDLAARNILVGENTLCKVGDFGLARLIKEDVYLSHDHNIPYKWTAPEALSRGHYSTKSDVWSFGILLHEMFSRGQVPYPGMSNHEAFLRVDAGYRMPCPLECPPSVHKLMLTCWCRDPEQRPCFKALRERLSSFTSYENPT
Chain of 5'-AMP-activated protein kinase catalytic subunit alpha-1 (Q13131 whole entry): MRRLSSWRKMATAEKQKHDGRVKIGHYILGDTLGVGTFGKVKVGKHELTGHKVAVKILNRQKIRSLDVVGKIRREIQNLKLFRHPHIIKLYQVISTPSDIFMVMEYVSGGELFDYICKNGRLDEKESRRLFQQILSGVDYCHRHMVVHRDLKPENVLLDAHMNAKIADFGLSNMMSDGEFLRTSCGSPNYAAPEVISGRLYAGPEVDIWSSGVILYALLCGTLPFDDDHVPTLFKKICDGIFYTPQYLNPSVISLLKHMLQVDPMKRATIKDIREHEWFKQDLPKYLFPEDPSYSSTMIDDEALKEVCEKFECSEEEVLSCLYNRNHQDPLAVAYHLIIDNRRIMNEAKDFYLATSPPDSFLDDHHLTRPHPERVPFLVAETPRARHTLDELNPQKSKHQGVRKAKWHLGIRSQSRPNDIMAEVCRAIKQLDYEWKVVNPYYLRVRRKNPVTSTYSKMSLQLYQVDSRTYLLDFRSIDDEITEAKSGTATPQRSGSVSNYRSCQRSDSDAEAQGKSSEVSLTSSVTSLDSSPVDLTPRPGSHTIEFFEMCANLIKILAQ
Chain of Macrophage-stimulating protein receptor (Q04912 25-304 limits assumed): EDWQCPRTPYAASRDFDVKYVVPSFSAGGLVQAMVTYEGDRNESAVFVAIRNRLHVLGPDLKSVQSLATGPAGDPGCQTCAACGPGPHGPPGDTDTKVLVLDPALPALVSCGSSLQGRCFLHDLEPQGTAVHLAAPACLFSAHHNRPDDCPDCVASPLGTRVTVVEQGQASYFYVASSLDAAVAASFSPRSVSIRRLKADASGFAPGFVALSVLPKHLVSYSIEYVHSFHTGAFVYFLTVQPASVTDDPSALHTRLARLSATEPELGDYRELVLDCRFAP
Chain of Macrophage-stimulating protein receptor (Q04912 310-1400 limits assumed): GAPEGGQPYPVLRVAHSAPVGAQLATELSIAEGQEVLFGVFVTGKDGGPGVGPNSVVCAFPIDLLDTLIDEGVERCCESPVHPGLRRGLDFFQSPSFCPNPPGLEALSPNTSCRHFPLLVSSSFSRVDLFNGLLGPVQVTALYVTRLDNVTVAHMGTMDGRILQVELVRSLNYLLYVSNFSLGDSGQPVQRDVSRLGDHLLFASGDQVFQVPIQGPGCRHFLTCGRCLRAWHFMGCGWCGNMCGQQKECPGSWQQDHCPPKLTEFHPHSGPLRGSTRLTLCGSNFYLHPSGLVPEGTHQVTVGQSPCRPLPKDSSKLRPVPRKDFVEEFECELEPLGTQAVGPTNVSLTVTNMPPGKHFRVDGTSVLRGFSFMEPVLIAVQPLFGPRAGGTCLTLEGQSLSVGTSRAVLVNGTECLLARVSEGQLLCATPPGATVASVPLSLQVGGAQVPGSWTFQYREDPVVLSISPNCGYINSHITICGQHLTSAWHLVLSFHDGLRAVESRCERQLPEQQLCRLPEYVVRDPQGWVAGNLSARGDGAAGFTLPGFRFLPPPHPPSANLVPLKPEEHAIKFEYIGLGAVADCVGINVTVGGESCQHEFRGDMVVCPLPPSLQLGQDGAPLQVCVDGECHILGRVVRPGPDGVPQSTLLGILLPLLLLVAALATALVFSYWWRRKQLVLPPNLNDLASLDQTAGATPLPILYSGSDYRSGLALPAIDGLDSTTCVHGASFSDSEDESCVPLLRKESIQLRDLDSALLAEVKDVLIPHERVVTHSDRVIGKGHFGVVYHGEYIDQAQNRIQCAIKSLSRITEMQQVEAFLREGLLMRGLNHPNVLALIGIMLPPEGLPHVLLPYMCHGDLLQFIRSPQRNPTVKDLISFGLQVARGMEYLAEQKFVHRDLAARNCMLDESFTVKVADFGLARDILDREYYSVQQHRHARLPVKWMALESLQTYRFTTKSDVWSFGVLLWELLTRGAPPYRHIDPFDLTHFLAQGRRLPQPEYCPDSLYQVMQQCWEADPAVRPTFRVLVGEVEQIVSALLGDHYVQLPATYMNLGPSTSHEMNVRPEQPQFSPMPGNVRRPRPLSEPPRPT
Chain of Casein kinase I isoform delta (P48730 whole entry, canonical isoform): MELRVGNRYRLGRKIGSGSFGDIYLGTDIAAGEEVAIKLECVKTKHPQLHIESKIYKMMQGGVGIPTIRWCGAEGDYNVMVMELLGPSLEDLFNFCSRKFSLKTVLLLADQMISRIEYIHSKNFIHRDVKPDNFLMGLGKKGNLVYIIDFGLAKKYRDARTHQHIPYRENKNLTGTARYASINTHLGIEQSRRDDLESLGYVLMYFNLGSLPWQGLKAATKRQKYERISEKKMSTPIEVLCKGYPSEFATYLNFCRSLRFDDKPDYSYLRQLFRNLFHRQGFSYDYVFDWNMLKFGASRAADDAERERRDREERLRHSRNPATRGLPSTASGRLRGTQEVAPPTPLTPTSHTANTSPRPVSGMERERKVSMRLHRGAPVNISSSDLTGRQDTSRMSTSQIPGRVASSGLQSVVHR
Chain of Tyrosine-protein kinase ABL2 (P42684 whole entry): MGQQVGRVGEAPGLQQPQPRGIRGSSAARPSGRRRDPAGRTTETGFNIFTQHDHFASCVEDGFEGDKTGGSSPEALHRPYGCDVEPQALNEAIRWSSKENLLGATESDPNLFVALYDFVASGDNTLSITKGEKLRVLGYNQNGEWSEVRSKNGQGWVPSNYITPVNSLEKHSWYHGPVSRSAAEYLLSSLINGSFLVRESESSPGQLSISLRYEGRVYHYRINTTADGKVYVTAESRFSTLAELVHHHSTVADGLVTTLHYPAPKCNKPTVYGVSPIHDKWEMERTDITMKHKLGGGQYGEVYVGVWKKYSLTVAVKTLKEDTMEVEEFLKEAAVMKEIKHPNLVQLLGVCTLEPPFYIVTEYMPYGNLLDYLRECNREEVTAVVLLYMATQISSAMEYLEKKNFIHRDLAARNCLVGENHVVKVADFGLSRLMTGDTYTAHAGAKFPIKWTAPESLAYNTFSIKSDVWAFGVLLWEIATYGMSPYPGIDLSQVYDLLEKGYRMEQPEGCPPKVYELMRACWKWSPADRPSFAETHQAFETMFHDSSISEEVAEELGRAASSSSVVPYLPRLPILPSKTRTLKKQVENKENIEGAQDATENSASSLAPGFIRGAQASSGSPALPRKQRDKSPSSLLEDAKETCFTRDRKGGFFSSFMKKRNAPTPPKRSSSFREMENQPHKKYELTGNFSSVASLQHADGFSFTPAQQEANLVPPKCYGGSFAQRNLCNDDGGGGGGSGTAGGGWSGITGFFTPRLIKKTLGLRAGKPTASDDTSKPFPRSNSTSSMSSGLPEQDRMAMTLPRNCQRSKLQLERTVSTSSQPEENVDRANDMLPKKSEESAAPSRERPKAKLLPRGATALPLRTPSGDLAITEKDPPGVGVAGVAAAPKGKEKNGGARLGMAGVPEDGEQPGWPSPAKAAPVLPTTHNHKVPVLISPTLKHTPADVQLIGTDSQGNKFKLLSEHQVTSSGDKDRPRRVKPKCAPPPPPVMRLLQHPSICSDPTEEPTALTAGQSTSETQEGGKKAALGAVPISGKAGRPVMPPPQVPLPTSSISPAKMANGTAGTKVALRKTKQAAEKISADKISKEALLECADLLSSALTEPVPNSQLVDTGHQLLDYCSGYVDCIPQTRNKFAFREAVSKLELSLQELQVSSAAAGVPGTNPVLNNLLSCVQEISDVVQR

In general, Kd refers to a measure of binding affinity in units of concentration. Turning to `O=c1[nH]c([C@@H]2CCCN2)nc2c1oc1ccc(Cl)cc12`, the Kd in assay [1], in [2], in assay [3], in [4], in [5] and in [6] was > 30 µM (inactive) in each case. In addition, the Kd in assay [7], in assay [8], in [9], in [10], in assay [11] and in [12] was > 30 µM (inactive) throughout. The Kd in assay [13] was > 30 µM (inactive).

For `CN1CCN(c2nc(C3=C(c4c[nH]c5ccccc45)C(=O)NC3=O)c3ccccc3n2)CC1` [SOTRASTAURIN], the Kd in assay [1], in assay [2], in [3], in [4], in [5] and in assay [6] was > 30 µM (inactive) each time. Further, the Kd in assay [7], in assay [8], in [9], in assay [10], in assay [11] and in [12] was > 30 µM (inactive) throughout. Moreover, the Kd in assay [13] is > 30 µM (inactive).

For `CCN1CCN(Cc2ccc(Nc3ncc(F)c(-c4cc(F)c5nc(C)n(C(C)C)c5c4)n3)nc2)CC1` [ABEMACICLIB], the Kd in [1], in assay [2], in assay [3], in assay [4], in assay [5] and in assay [6] was > 30 µM (inactive) throughout. Also, the Kd in [7], in assay [8], in assay [9], in assay [10], in assay [11] and in assay [12] was > 30 µM (inactive) each time. Besides, in [13], the Kd was > 30 µM (inactive).

As for `COc1ccc(-c2ccc3ncc4c(c3c2)n(-c2ccc(N3CCNCC3)c(C(F)(F)F)c2)c(=O)n4C)cn1` [BGT-226 FREE BASE], the Kd in [1], in assay [2], in [3], in [4], in assay [5] and in [6] was > 30 µM (inactive) in each case. Moreover, the Kd in assay [7], in assay [8], in assay [9], in assay [10], in assay [11] and in [12] was > 30 µM (inactive) in each case. Also, the Kd in [13] is > 30 µM (inactive).

As for `CNC(=O)c1ccc(Nc2ncc(C(F)(F)F)c(NCc3nccnc3N(C)S(C)(=O)=O)n2)cc1` [DEFACTINIB], the Kd in assay [1], in assay [2], in [3], in [4], in [5] and in assay [6] was > 30 µM (inactive) in each case. For the same compound, the dissociation constant Kd in [7] is 0.454 µM; in assay [8], > 30 µM (inactive); in [9], > 30 µM (inactive); in assay [10], > 30 µM (inactive); in assay [11], > 30 µM (inactive); in assay [12], > 30 µM (inactive). Further, in [13], the Kd is > 30 µM (inactive).

Regarding `Cn1cc(-c2[nH]c3cc(NC(=O)[C@H](N)C4CCCCC4)cc4c3c2C=NNC4=O)cn1`, the Kd in [1] was 1.37 µM (active); in [2] it was > 30 µM (inactive); in assay [3], > 30 µM (inactive); in assay [4] it was > 30 µM (inactive); in [5] it was > 30 µM (inactive); in assay [6], > 30 µM (inactive). The Kd is > 30 µM (inactive) in assay [7]; 1.32 µM (active) in assay [8]; > 30 µM (inactive) in assay [9]; > 30 µM (inactive) in assay [10]; > 30 µM (inactive) in assay [11]; 1.05 µM (active) in [12]. Also, the Kd in assay [13] was > 30 µM (inactive).

`C[C@@H]1COC(Nc2ccc3ncnc(Nc4ccc(OCc5nccs5)c(Cl)c4)c3c2)=N1` [VARLITINIB]: the Kd in [1], in [2], in assay [3], in assay [4], in assay [5] and in assay [6] was > 30 µM (inactive) each time. Also, the Kd in assay [7], in assay [8], in assay [9], in assay [10], in assay [11] and in assay [12] was > 30 µM (inactive) in each case. Besides, the Kd in assay [13] was > 30 µM (inactive).

With `CCc1cc2c(cc1N1CCC(N3CCOCC3)CC1)C(C)(C)c1[nH]c3cc(C#N)ccc3c1C2=O` [ALECTINIB], the Kd in [1], in assay [2], in assay [3], in [4], in assay [5] and in assay [6] was > 30 µM (inactive) each time. Also, the Kd in [7], in assay [8], in assay [9], in assay [10], in assay [11] and in [12] was > 30 µM (inactive) throughout. Besides, the Kd in assay [13] is > 30 µM (inactive).

`C#Cc1cccc(Nc2ncnc3cc4c(cc23)OCCOCCOCCO4)c1` [ICOTINIB]: the Kd in [1], in [2], in assay [3], in [4], in assay [5] and in [6] was > 30 µM (inactive) each time. For the same compound, the Kd in assay [7], in assay [8], in assay [9], in assay [10], in assay [11] and in assay [12] was > 30 µM (inactive) throughout. In addition, the Kd in assay [13] is > 30 µM (inactive).

These data come from ChEMBL document CHEMBL3991601, “The target landscape of clinical kinase drugs” (Science, 2017).
